Reference: the supplement of paper PMC10307832

Legend:
Assay in all cases: relative viability (nuclei count vs DMSO), 5 days (fraction); higher = more cells survive
Ruxolitinib + Lapatinib = compound: N#CC[C@H](C1CCCC1)n1cc(-c2ncnc3[nH]ccc23)cn1 [Ruxolitinib] + CS(=O)(=O)CCNCc1ccc(-c2ccc3ncnc(Nc4ccc(OCc5cccc(F)c5)c(Cl)c4)c3c2)o1 [Lapatinib] (partner 2 µM)
Method in brief: (§1)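 Values are medians from duplicate plates. Each reflects relative viability, defined as the nuclei count of treated wells over that of vehicle wells. Lung cancer cell lines in 1536-well plates were pin-tool dosed one day after seeding with one drug alone or with a fixed anchor-drug dose plus five library-drug doses (not always all listed) in √10 steps, then fixed, stained and imaged at 4× after 5 days.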

VE-821 + Foretinib = compound: CS(=O)(=O)c1ccc(-c2cnc(N)c(C(=O)Nc3ccccc3)n2)cc1 [VE-821] + COc1cc2c(Oc3ccc(NC(=O)C4(C(=O)Nc5ccc(F)cc5)CC4)cc3F)ccnc2cc1OCCCN1CCOCC1 [Foretinib] (partner 0.25 µM)
Method in brief: as §1

Vismodegib + Navitoclax = compound: CS(=O)(=O)c1ccc(C(=O)Nc2ccc(Cl)c(-c3ccccn3)c2)c(Cl)c1 [Vismodegib] + CC1(C)CCC(c2ccc(Cl)cc2)=C(CN2CCN(c3ccc(C(=O)NS(=O)(=O)c4ccc(N[C@H](CCN5CCOCC5)CSc5ccccc5)c(S(=O)(=O)C(F)(F)F)c4)cc3)CC2)C1 [Navitoclax] (partner 0.5 µM)
Method in brief: as §1

Vismodegib + Foretinib = compound: CS(=O)(=O)c1ccc(C(=O)Nc2ccc(Cl)c(-c3ccccn3)c2)c(Cl)c1 [Vismodegib] + COc1cc2c(Oc3ccc(NC(=O)C4(C(=O)Nc5ccc(F)cc5)CC4)cc3F)ccnc2cc1OCCCN1CCOCC1 [Foretinib] (partner 0.25 µM)
Method in brief: as §1

UMC-11
relative viability (Ruxolitinib + Lapatinib; first compound 0.08 µM): 1.01 | relative viability (Ruxolitinib + Lapatinib; first compound 0.253 µM): 0.934 | relative viability (Ruxolitinib + Lapatinib; first compound 0.8 µM): 1.23 | relative viability (Ruxolitinib + Lapatinib; first compound 2.53 µM): 0.998 | relative viability (Ruxolitinib + Lapatinib; first compound 8 µM): 1.02 | relative viability (VE-821 + Foretinib; first compound 0.08 µM): 1.09 | relative viability (VE-821 + Foretinib; first compound 0.253 µM): 1.01 | relative viability (VE-821 + Foretinib; first compound 0.8 µM): 1.08 | relative viability (VE-821 + Foretinib; first compound 2.53 µM): 1.06 | relative viability (VE-821 + Foretinib; first compound 8 µM): 0.553 | relative viability (Vismodegib + Navitoclax; first compound 0.08 µM): 0.321 | relative viability (Vismodegib + Navitoclax; first compound 0.253 µM): 0.313 | relative viability (Vismodegib + Navitoclax; first compound 0.8 µM): 0.296 | relative viability (Vismodegib + Navitoclax; first compound 2.53 µM): 0.29 | relative viability (Vismodegib + Navitoclax; first compound 8 µM): 0.305 | relative viability (Vismodegib + Foretinib; first compound 0.08 µM): 0.996 | relative viability (Vismodegib + Foretinib; first compound 0.253 µM): 0.961 | relative viability (Vismodegib + Foretinib; first compound 0.8 µM): 1.07 | relative viability (Vismodegib + Foretinib; first compound 2.53 µM): 0.923 | relative viability (Vismodegib + Foretinib; first compound 8 µM): 1.04
